# Laboratory results taken from publication PMC10859787 (Clinical and Translational Science, 2024).
# How the values were obtained:
# cytochrome P450 (CYP) 3A = conditions: cited from earlier work
# CYP2D6 = conditions: cited from earlier work
# [1] = cited from earlier work
# [2] = Population pharmacokinetic analysis of upadacitinib plasma concentrations; type: in vivo, human; conditions: for Cmax: C max; for Cmax / concentration at 24 h / C avg: model-estimated, 15 mg once daily, median (5th to 95th percentile); for concentration at 24 h: C trough
# [3] = human, plasma, oral, 15 mg, patients with RA in phase III trials (N = 1592)
# [4] = human, plasma, oral, 15 mg, patients with nr-axSpA (N = 71)
smiles,measurement,setting,value
CC[C@@H]1CN(C(=O)NCC(F)(F)F)C[C@@H]1c1cnc2cnc3[nH]ccc3n12 [upadacitinib],substrate for cytochrome P450 (CYP) 3A,cytochrome P450 (CYP) 3A,substrate
same,substrate for CYP2D6,CYP2D6,to a minor extent
same,dose linearity of pharmacokinetics,[1]; 7.5 to 45 mg q.d. dose range,linear pharmacokinetics
same,apparent volume of distribution of the central compartment (population estimate),[1]; previously developed RA model,156 L
same,Vd/F,"[2]; human, plasma, oral, 15 mg",171 L
same,Cmax,[2]; [3],41.1 ng/mL
same,Cmax,[2]; [4],37.3 ng/mL
same,concentration at 24 h,"[2]; human, plasma, oral, 15 mg, patients with AS (N = 173)",3.71 ng/mL
same,concentration at 24 h,[2]; [3],3.72 ng/mL
same,concentration at 24 h,[2]; [4],4.58 ng/mL
same,C avg,[2]; patients with AS (N = 173),"14.5 (9.78, 25.9) ng/mL"
same,C avg,[2]; patients with RA in phase III trials (N = 1592),"14.9 (9.74, 29.2) ng/mL"
same,C avg,[2]; patients with nr-axSpA (N = 71),"14.8 (10.5, 25.5) ng/mL"
